# Measured values published in patent US20050101542A1, “Combination therapy for controlling appetites” (Regents of the University of California, priority 2002, published 2005).
# Several values for one entry are separate records, joined by “and”; a condition that tells them apart may be missing. Identical values can stand only once.
# What was measured:
# [1] = test system: retinoid X receptor (RXR); test: GAL4 chimeric receptor transactivation assay in HeLa cells, RXR; format: cell-based, human
# Protocol: Transactivator plasmids pFA-PPARα, pFA-PPARδ, pFA-PPARγ and pFA-RXR, which encoded for the […] Of hPPARα ? ((499-1404), hPPARδ (412-1320), hPPARγ (610-1434) and hRXR (402-1389) fused to the DNA-binding domain (residues 1-147) Of yeast GAL4 under control of the human cytomegalovirus (CMV) promoter were generated. The plasmids contained a neomycin-resistance gene to provide stable selection with G418 (200 μg-ml^−1; Calbiochem). The HeLa cells were cultured in Dulbecco's-modified Eagles's medium (DMEM) supplemented with fetal bovine serum (10%). The cells were transfected with Fugene 6 (3 μl, Roche) Containing the pFR-luc plasmid (1 μg, Stratagene). Eighteen hours following transfection, the culture media was replaced with supplemented DMEM containing hygromycin (100 μg-ml^−1, Calbiochem). After 4 weeks in culture, the surviving clones were isolated and analyzed by luciferase assay. […] The cells were cultured in supplemented DMEM containing hygromycin and G418. For transactivation assays, cells were seeded in 6-well plates (50,000 cells per well) and incubated for 7 hours in supplemented DMEM containing hygromycin and G418, plus appropriate concentrations of test compounds. Dual-luciferase reporter assay system (Promega) and an MLX Microtiter® plate luminometer (Dynex) were used to determine luciferase activity in cell lysates. […]
# [2] = test system: Hepatocyte; test: [14C]oleate oxidation to ketone bodies in hepatocytes; format: cell-based, rat; details: 10 min incubation
# Source text: OEA-like compounds and modulators can be used to modulate fat metabolism. Such compounds can also be assayed for their effect on fatty acid metabolism. The effect of the candidate compound on fatty acid metabolism can be measured by measurements of fatty acid oxidation in primary cultures of liver cells. Hepatocytes may be used to determine the rate of oleate oxidation to ketone bodies and carbon dioxide. Such cells can be isolated from adult rat liver by enzymatic digestion as described by Beynen et al. in Diabetes 28:828 (1979). Cells typically are cultured in suspension and incubated in Krebs-Henseleit's bicarbonate medium supplemented with bovine serum albumin and glucose as described by Guzman & Geelen, Biochem. J., 287:487 (1992). The protein concentration of the cultured cells can be determined and cells seeded in 2 ml media so that 4-6 mg protein per ml is present in the reaction mixture. […] Protein concentration can be determined using a Lowry assay. The rate of oleate conversion into ketone bodies may be expressed as nmol of oleate oxidized per hour per mg protein and may be determined using liquid scintillation counting. […]
# [3] = Operant responses for food; format: in vivo, rat; details: at a dose substantially higher than those required to produce hypophagia
# Source text: Operant responses for food. Rats were trained to lever press for food on a fixed ratio 1 (FR1) schedule of reinforcement, while food-restricted at 20 g of chow per rat per day (Rodriguez de Fonseca, et al., Acta Pharmacol. Sin., 20:1109-1114 (1999)). Once stable responding was achieved, the animals were trained to acquire an FR5, time out 2-min schedule of food reinforcement and kept in limited access to food. When a stable baseline was obtained, the animals were used to test the effects of vehicle or OEA (1, 5 or 20 mg per kg) administered 15 min before lever presentation. Test duration was 60 min.
# [4] = target: T1, human PPARα (Homo sapiens, UniProt Q07869); test: GAL4 chimeric receptor transactivation assay in HeLa cells, PPARα; format: cell-based; details: HeLa transactivation assay, 7 hours; read-out: EC50 for PPARα activation
# T1 construct: expressed in transfected cells; host or cells: HeLa (clonal reporter line HLR, stably transfected with pFA-PPARα)
# T1 sequence (Q07869 239-466 limits assumed): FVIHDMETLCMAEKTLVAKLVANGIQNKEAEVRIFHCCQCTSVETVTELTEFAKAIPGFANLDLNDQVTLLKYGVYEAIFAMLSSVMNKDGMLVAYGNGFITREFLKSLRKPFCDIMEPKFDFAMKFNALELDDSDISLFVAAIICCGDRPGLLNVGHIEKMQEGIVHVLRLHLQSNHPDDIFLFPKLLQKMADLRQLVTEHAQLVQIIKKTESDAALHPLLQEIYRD
# Protocol: Eighteen hours following transfection, the culture media was replaced with supplemented DMEM containing hygromycin (100 μg-ml^−1, Calbiochem). After 4 weeks in culture, the surviving clones were isolated and analyzed by luciferase assay. […] The cells were cultured in supplemented DMEM containing hygromycin and G418. For transactivation assays, cells were seeded in 6-well plates (50,000 cells per well) and incubated for 7 hours in supplemented DMEM containing hygromycin and G418, plus appropriate concentrations of test compounds. Dual-luciferase reporter assay system (Promega) and an MLX Microtiter® plate luminometer (Dynex) were used to determine luciferase activity in cell lysates.
# [5] = Other behavioral assays (elevated plus maze, open field, hot plate, rectal temperature); format: in vivo, rat
# Protocol: Other behavioral assays. The elevated plus maze test was conducted as described (Navarro, et al., Neuroreport, 8:491-496 (1997)) after the administration of vehicle or OEA (20 mg per kg, i.p.). Horizontal activity in an open field (Beltramo et al., J. Neurosci., 20:3401-3407 (2000)) and pain threshold in the hot plate test (55° C.) (Beltramo et al., Science, 277:1094-1097 (1997)) were measured 15 min after injection of vehicle or OEA (20 mg per kg). Rectal temperature was measured using a digital thermometer (Martin-Calderón et al., Eur. J. Pharmacol., 344:77-86. (1998)).
smiles,measurement,setting,value
"CCCCCCCC/C=C\CCCCCCCC(=O)NCCO [OEA, Z-2-hydroxyethyl octadec-9-enamide]",effect on RXR,[1],no effect
same,Stimulatory effect of 10 μM OEA on [14C]oleate oxidation to ketone bodies,[2],21+−6% and 21 ± 6 (n = 4) %
same,operant responses for food,[3],reduced
same,EC50,[4],120 nM
same,anxiety-like symptoms (elevated plus maze),[5]; acute,did not produce
same,body temperature,"[5]; acute, 5 or 20 mg per kg",did not alter
same,pain threshold (hot plate),"[5]; acute, 5 or 20 mg per kg",did not alter
same,motor activity (open field),[5]; at a dose substantially higher than those required to produce hypophagia,reduced
